From ChEMBL document CHEMBL1201862, “PubChem BioAssay data set” (2004)
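Compound exposure: 48 hours, 5 concentrations, 96-well plates. At the GI50, growth is halved.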 Calls of active or inactive are those of the source. Rule as the data show it: active = GI50 up to about 1.1 µM and inactive = higher.

Legend:
Assay in all cases: inhibition of tumour cell growth, NCI panel, 48 h
[1] = tested on: 786-0
[2] = tested on: A498
[3] = tested on: A549
[4] = tested on: BT-549
[5] = tested on: CAKI-1
[6] = tested on: CCRF-CEM
[7] = tested on: COLO 205
[8] = tested on: DU-145
[9] = tested on: EKVX
[10] = tested on: HCC 2998
[11] = tested on: HCT-116
[12] = tested on: HCT-15
[13] = tested on: HL-60
[14] = tested on: HT-29
[15] = tested on: Hs-578T
[16] = tested on: IGROV-1
[17] = tested on: K562
[18] = tested on: KM12
[19] = tested on: LOX IMVI
[20] = tested on: M14
[21] = tested on: MCF7
[22] = tested on: MDA-MB-231
[23] = tested on: MDA-MB-435
[24] = tested on: MDA-N
[25] = tested on: MOLT-4
[26] = tested on: Malme-3M
[27] = tested on: NCI-H226
[28] = tested on: NCI-H23
[29] = tested on: NCI-H460
[30] = tested on: NCI-H522
[31] = tested on: NCI/ADR-RES
[32] = tested on: OVCAR-3
[33] = tested on: OVCAR-4
[34] = tested on: OVCAR-5
[35] = tested on: OVCAR-8
[36] = tested on: PC-3
[37] = tested on: RPMI-8226
[38] = tested on: RXF 393
[39] = tested on: SF-268
[40] = tested on: SF-539
[41] = tested on: SK-MEL-28
[42] = tested on: SK-MEL-2
[43] = tested on: SK-MEL-5
[44] = tested on: SK-OV-3
[45] = tested on: SN12C
[46] = tested on: SNB-19
[47] = tested on: SNB-75
[48] = tested on: SR
[49] = tested on: SW-620
[50] = tested on: T47D
[51] = tested on: TK-10
[52] = tested on: U-251
[53] = tested on: UACC-257
[54] = tested on: UACC-62
[55] = tested on: UO-31
[56] = tested on: ACHN
[57] = tested on: HOP-62
[58] = tested on: HOP-92
[59] = tested on: SF-295

For `CC(C(=O)O)C(C)(O)C(=O)O` (stereo not given), the GI50 [1] was > 100 µM (inactive), the GI50 [2] was > 100 µM (inactive) and the GI50 [3] was > 100 µM (inactive). The GI50 [4] was > 100 µM (inactive), the GI50 [5] was > 100 µM (inactive) and the GI50 [6] was > 100 µM (inactive). The GI50 [7] was > 100 µM (inactive), the GI50 [8] was > 100 µM (inactive) and the GI50 [9] was > 100 µM (inactive). For the same compound, the GI50 [10] was > 100 µM (inactive), the GI50 [11] was > 100 µM (inactive) and the GI50 [12] was greater than 100 µM. The GI50 [13] was > 100 µM (inactive), the GI50 [14] was > 100 µM (inactive) and the GI50 [15] was > 100 µM (inactive). For the same compound, the GI50 [16] was > 100 µM (inactive), the GI50 [17] was > 100 µM (inactive) and the GI50 [18] was > 100 µM (inactive). For the same compound, the GI50 [19] was > 100 µM (inactive), the GI50 [20] was > 100 µM (inactive) and the GI50 [21] was > 100 µM (inactive). For the same compound, the GI50 [22] was > 100 µM (inactive), the GI50 [23] was > 100 µM (inactive) and the GI50 [24] was > 100 µM (inactive). For the same compound, the GI50 [25] was > 100 µM (inactive), the GI50 [26] was > 100 µM (inactive) and the GI50 [27] was > 100 µM (inactive). The GI50 [28] was > 100 µM (inactive), the GI50 [29] was > 100 µM (inactive) and the GI50 [30] was > 100 µM (inactive). For the same compound, the GI50 [31] was > 100 µM (inactive), the GI50 [32] was > 100 µM (inactive) and the GI50 [33] was > 100 µM (inactive). For the same compound, the GI50 [34] was 61.8 µM (inactive), the GI50 [35] was > 100 µM (inactive) and the GI50 [36] was > 100 µM (inactive). For the same compound, the GI50 [37] was > 100 µM (inactive), the GI50 [38] was > 100 µM (inactive) and the GI50 [39] was > 100 µM (inactive). For the same compound, the GI50 [40] was > 100 µM (inactive), the GI50 [41] was > 100 µM (inactive) and the GI50 [42] was > 100 µM (inactive). The GI50 [43] was > 100 µM (inactive), the GI50 [44] was > 100 µM (inactive) and the GI50 [45] was > 100 µM (inactive). For the same compound, the GI50 [46] was > 100 µM (inactive), the GI50 [47] was > 100 µM (inactive) and the GI50 [48] was > 100 µM (inactive). For the same compound, the GI50 [49] was > 100 µM (inactive), the GI50 [50] was > 100 µM (inactive) and the GI50 [51] was > 100 µM (inactive). The GI50 [52] was > 100 µM (inactive), the GI50 [53] was > 100 µM (inactive) and the GI50 [54] was > 100 µM (inactive). For the same compound, the GI50 [55] was > 100 µM (inactive).

For `CCOC(=O)C(C(N)=O)C1=Nc2cc([N+](=O)[O-])ccc2N/C1=C\C(=O)c1ccc(C)cc1` (stereo not given), the GI50 [1] was 13.1 µM (inactive), the GI50 [2] was 27.8 µM (inactive) and the GI50 [3] was 26.9 µM (inactive). For the same compound, the GI50 [56] was 21.3 µM (inactive), the GI50 [4] was 22.6 µM (inactive) and the GI50 [5] was 46.6 µM (inactive). The GI50 [6] was 23.6 µM (inactive), the GI50 [7] was 27.2 µM (inactive) and the GI50 [8] was 32.6 µM (inactive). For the same compound, the GI50 [9] was 26.7 µM (inactive), the GI50 [10] was 23.3 µM (inactive) and the GI50 [11] was 20.7 µM (inactive). The GI50 [12] was 28.8 µM, the GI50 [57] was 16.8 µM (inactive) and the GI50 [58] was 18.1 µM (inactive). The GI50 [14] was 33.1 µM (inactive), the GI50 [15] was 21.6 µM (inactive) and the GI50 [16] was 17.4 µM (inactive). The GI50 [17] was 2.46 µM (inactive), the GI50 [18] was 31.2 µM (inactive) and the GI50 [19] was 23.3 µM (inactive). For the same compound, the GI50 [20] was 38.3 µM (inactive), the GI50 [21] was 22.4 µM (inactive) and the GI50 [22] was 18.4 µM (inactive). The GI50 [23] was 39.4 µM (inactive), the GI50 [24] was 43.3 µM (inactive) and the GI50 [25] was 0.522 µM (active). For the same compound, the GI50 [26] was 35.3 µM (inactive), the GI50 [27] was 27.4 µM (inactive) and the GI50 [28] was 16.9 µM (inactive). The GI50 [29] was 22.2 µM (inactive), the GI50 [30] was 17.7 µM (inactive) and the GI50 [31] was 22.1 µM (inactive). For the same compound, the GI50 [32] was 15.8 µM (inactive), the GI50 [33] was 43.6 µM (inactive) and the GI50 [34] was 70.8 µM (inactive). The GI50 [35] was 19 µM (inactive), the GI50 [36] was 20 µM (inactive) and the GI50 [37] was 18.1 µM (inactive). For the same compound, the GI50 [38] was 17.6 µM (inactive), the GI50 [39] was 15.1 µM (inactive) and the GI50 [59] was 19.4 µM (inactive). The GI50 [40] was 17.1 µM (inactive), the GI50 [41] was 29.3 µM (inactive) and the GI50 [42] was 20.9 µM (inactive). The GI50 [43] was 33.9 µM (inactive), the GI50 [44] was 18.3 µM (inactive) and the GI50 [45] was 26.2 µM (inactive). The GI50 [46] was 20.7 µM (inactive), the GI50 [47] was 16.1 µM (inactive) and the GI50 [48] was 7.55 µM (inactive). The GI50 [49] was 28.7 µM (inactive), the GI50 [50] was 60.1 µM (inactive) and the GI50 [51] was 14.8 µM (inactive). The GI50 [52] was 15.5 µM (inactive), the GI50 [53] was 39.5 µM (inactive) and the GI50 [54] was 30.3 µM (inactive). The GI50 [55] was 17.6 µM (inactive).

`Sc1nnc(C23CC4CC(CC(C4)C2)C3)n1-c1ccc(Cl)cc1` was tested, and the GI50 [1] was 14.6 µM (inactive), the GI50 [2] was 19.1 µM (inactive) and the GI50 [3] was 8.34 µM (inactive). For the same compound, the GI50 [56] was 15.4 µM (inactive), the GI50 [4] was 12.3 µM (inactive) and the GI50 [5] was 1.96 µM (inactive). The GI50 [6] was 4.36 µM (inactive), the GI50 [7] was 13.2 µM (inactive) and the GI50 [8] was 20.1 µM (inactive). The GI50 [10] was 13.7 µM (inactive), the GI50 [11] was 7.59 µM (inactive) and the GI50 [12] was 7.83 µM. For the same compound, the GI50 [13] was 2.77 µM (inactive), the GI50 [57] was 13 µM (inactive) and the GI50 [14] was 14.6 µM (inactive). For the same compound, the GI50 [15] was 22.1 µM (inactive), the GI50 [16] was 8.75 µM (inactive) and the GI50 [17] was 9.59 µM (inactive). The GI50 [18] was 14.6 µM (inactive), the GI50 [19] was 4.54 µM (inactive) and the GI50 [20] was 15.1 µM (inactive). For the same compound, the GI50 [21] was 13.1 µM (inactive), the GI50 [22] was 21.4 µM (inactive) and the GI50 [23] was 12.9 µM (inactive). The GI50 [24] was 15.6 µM (inactive), the GI50 [25] was 8.41 µM (inactive) and the GI50 [26] was 13.5 µM (inactive). For the same compound, the GI50 [27] was 23.3 µM (inactive), the GI50 [28] was 27.5 µM (inactive) and the GI50 [29] was 5.69 µM (inactive). For the same compound, the GI50 [30] was 20.2 µM (inactive), the GI50 [31] was 15.5 µM (inactive) and the GI50 [32] was 10.8 µM (inactive). For the same compound, the GI50 [33] was 16.9 µM (inactive), the GI50 [34] was 35.4 µM (inactive) and the GI50 [35] was 15.8 µM (inactive). For the same compound, the GI50 [36] was 11.2 µM (inactive), the GI50 [37] was 8.89 µM (inactive) and the GI50 [38] was 14.2 µM (inactive). For the same compound, the GI50 [39] was 11.6 µM (inactive), the GI50 [59] was 11.1 µM (inactive) and the GI50 [40] was 22.7 µM (inactive). For the same compound, the GI50 [41] was 11.9 µM (inactive), the GI50 [42] was 10.9 µM (inactive) and the GI50 [43] was 3.3 µM (inactive). For the same compound, the GI50 [44] was 20 µM (inactive), the GI50 [45] was 14.1 µM (inactive) and the GI50 [46] was 27.2 µM (inactive). For the same compound, the GI50 [47] was 22.3 µM (inactive), the GI50 [48] was 3.07 µM (inactive) and the GI50 [49] was 16.1 µM (inactive). For the same compound, the GI50 [50] was 17.5 µM (inactive), the GI50 [51] was 22.3 µM (inactive) and the GI50 [52] was 9.18 µM (inactive). The GI50 [53] was 22.5 µM (inactive), the GI50 [54] was 8.26 µM (inactive) and the GI50 [55] was 13.7 µM (inactive).
